Measurements reported in US6287840A (Axys Pharmaceuticals, Inc., priority 1999, dated 2001).
Where “and” joins values, the source holds several entries; their conditions need not be identical. Equal values may be shown once. Read-outs that look alike come from different tables or passages of the source.

Assays:
[1] = tested on: Leishmania donovani amastigote infected mouse peritoneal macrophages; assay: In vitro antiprotozoal activity, Leishmania donovani; format: cell-based; set-up: key to percentage inhibition, L. donovani: the term "T" indicates the molecule to have displayed cytotoxicity
Protocol: (§1) In this table, the in vitro antiprotozoal activities of the indicated compounds were measured as percentage inhibition of Leishmania donovani amastigote infecteda mouse peritoneal macrophages, Trypanosoma cruzi amastigote infected macrophages, and Trypanosoma brucei extracellular bloodstream forms.

[2] = tested on: Trypanosoma cruzi amastigote infected macrophages; assay: In vitro antiprotozoal activity, Trypanosoma cruzi; format: cell-based; set-up: key to percentage inhibition, T. cruzi: the term "T" indicates the molecule to have displayed cytotoxicity
Protocol: as §1

U251MGn = assay: Matrigel barrier migration assay, U251MGn; format: cell-based, human; set-up: dose or concentration left out as unconfirmed
Protocol: (§2) Two permanent human glioma cell lines (U87MG and U251MGn) and a well characterized low passage primary culture derived from a CB-positive glioblastoma (HF66) were used to assess the migratory behavior in the Matrigel barrier migration assay in the presence of graded concentrations of four compounds.
(§3) Using the Matrigel assay, Mu-Leu-HphVSPh, Mu-Tyr-HphVSPh, Mu-Phe-HphVSPh, and Mu-Tyr(I2)-HphVSPh (all at 10 mM) inhibited U251MGn by 67, 56, 29, & 20% respectively, while the U87MG cells were inhibited 53, 75, 63, & 56% respectively. The primary culture HF66 cells were inhibited only 10% by these compounds at the same concentration.

[3] = biological target: T1, Cathepsin L from rat liver (Rattus norvegicus, UniProt P07154); assay: Inhibition of cathepsin L, Z-Phe-Arg-AMC fluorescence progress curves; format: biochemical; details: for Ki: corrected for substrate; for kobs /[I]* (approximate second-order inactivation constant): values marked *; for kobs /[I]* (approximate second-order inactivation constant) / k/KI (kirr/KI): 25° C., pH 6.2; for k/KI (kirr/KI): values without asterisk
T1 construct: Cathepsin L from rat liver; from tissue; host or cells: rat liver
In short: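 Progress curves of AMC release (380/460 nm) over at least 3 inactivation half-times were fitted to kobs, reported as kobs/[I] or, via 1/[I] vs 1/kobs, kirr, KI (substrate-corrected) and kirr/KI.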

calpain = assay: Inhibition (inactivation) of calpain, Suc-Leu-Tyr-AMC; format: biochemical; details: values marked * (or %); pH 7.5, 5 mM CaCl2, 25° C.
Protocol: The inhibitors were tested against calpain at 1 or 2% as for the other enzymes. The reaction conditions were 50 mM Tris, pH 7.5, 5 mM CaCl2, 2.5 mM DTT, assayed at 25° C. The substrate was 100 μM Suc-Leu-Tyr-AMC.

[4] = biological target: T2, Cathepsin B from human placenta (Homo sapiens, UniProt P07858); assay: Inhibition of cathepsin B, Z-Arg-Arg-AMC fluorescence progress curves; format: biochemical; details: for k/KI (kirr/KI): values without asterisk, 25° C., pH 6.2
T2 construct: Cathepsin B from human placenta, obtained from Sigma; purchased Sigma; host or cells: human placenta (tissue)
In short: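 Human placental enzyme (~10 nM) in 50 mM phosphate pH 6.2 with 2.5 mM DTT and 2.5 mM EDTA, 50 μM Z-Arg-Arg-AMC, inhibitors 30-0.001 μM, 25° C. AMC fluorescence (ex 380/em 460 nm) progress curves fitted for kobs; kobs/[I] reported, with kirr, KI and kirr/KI substrate-corrected for selected compounds.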

U87MG = assay: Matrigel barrier migration assay, U87MG; format: cell-based, human; set-up: dose or concentration left out as unconfirmed
Protocol: as §2, §3

P. carinii = assay: Growth of P. carinii in vitro; format: cell-based; details: 10 mM each
Protocol: Mu-Leu-HphVSPh and Mu-Phe-LysVSPh.HBr were evaluated for their effects on the growth of P. carinii in vitro, according to the procedure of M. S. Bartlett et al. [Antimicrotubule Benzimidazoles Inhibit In Vitro Growth of P. carinii, M. S. Bartlett, T. D. Edlind, M. M. Durkin, M. M. Shaw, S. F. Queener, and J. W. Smith, (1992) Antimicrobial Agents and Chemotherapy, 36, 779-782; Antimicrobial susceptibility of P. carinii in culture, M. S. Bartlett, R. Eichholtz, and J. W. Smith (1985) Diagn. Microbiol. Infect. Dis.; 3, 381-387. Mu-Leu-HphVSPh and Mu-Phe-LysVSPh.HBr (10 mM each) inhibited the growth of P. carinii 64% and 50% respectively.

T1 sequence (P07154 114-288 limits assumed): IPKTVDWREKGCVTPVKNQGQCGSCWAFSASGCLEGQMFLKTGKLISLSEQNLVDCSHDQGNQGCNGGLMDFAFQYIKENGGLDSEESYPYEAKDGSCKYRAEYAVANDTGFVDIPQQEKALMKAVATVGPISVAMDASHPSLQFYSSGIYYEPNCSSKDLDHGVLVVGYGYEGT
T1 sequence (P07154 291-334 limits assumed): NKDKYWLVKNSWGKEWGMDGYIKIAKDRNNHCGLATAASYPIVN

Structure (SMILES)	percentage inhibition, L. donovani ([1]; 3 uM)	percentage inhibition, L. donovani ([1]; 10 uM)	percentage inhibition, L. donovani ([1]; 30 uM)	percentage inhibition, L. donovani ([1]; 90 uM)	percentage inhibition, T. cruzi ([2]; 3 uM)	percentage inhibition, T. cruzi ([2]; 10 uM)	percentage inhibition, T. cruzi ([2]; 30 uM)	percentage inhibition, T. cruzi ([2]; 90 uM)	inhibition of U251MGn migration (U251MGn)	kirr [3]	Ki [3]	kobs /[I]* (approximate second-order inactivation constant) [3]	k/KI (kirr/KI) [3]	k/KI (kirr/KI) [4]	inhibition of U87MG migration (U87MG)	other results
O=C(N[C@H](/C=C/S(=O)(=O)c1ccccc1)CCc1ccccc1)C(Cc1ccccc1)NC(=O)N1CCOCC1 (stereo partly drawn) [Mu-Phe-HphVSPh, (S)-(E)-3-(4-morpholinecarbonyl-phenylalanyl)amino-5-phenyl-1-phenylsulfonyl-1-pentene]	0%	0%	9.4%	T	10%	10%	50.1%	T	29%	0.24 s⁻¹	1 µM	260,000 M^-1 sec^-1	224,000 M^-1 sec^-1	16,400 M^-1 sec^-1	63%	Ki ([3]; listed as Mu-Phe-Hph-VSPh): 1.1 µM; kirr ([3]; listed as Mu-Phe-Hph-VSPh): 0.23 s⁻¹; k/KI (kirr/KI) ([3]; listed as Mu-Phe-Hph-VSPh): 201,000 M^-1 sec^-1; kobs /[I]* (calpain): < 50 M⁻¹ s⁻¹; kirr [4]: 0.17 s⁻¹; Ki ([4]; corrected for substrate): 11 µM; kirr ([4]; listed as Mu-Phe-Hph-VSPh): 0.061 s⁻¹ and 0.12 s⁻¹
CC(C)C[C@H](NC(=O)N1CCOCC1)C(=O)N[C@H](/C=C/S(=O)(=O)c1ccccc1)CCc1ccccc1 [Mu-Leu-HphVSPh, (S)-(E)-3-(4-morpholinecarbonylleucyl)amino-5-phenyl-1-phenylsulfonyl-1-pentene]	4.6%	0%	15.3%	T	0%	0%	11.4%	T	67%	0.40 s⁻¹	0.81 µM	28,700 M^-1 sec^-1	490,000 M^-1 sec^-1	4250 M⁻¹ s⁻¹	53%	inhibition of the growth of P. carinii (P. carinii): 64%
